This data set in a line: recombinant UMI read abundance after kanamycin selection (control-corrected) (log10(CPM+1)); higher = more efficient recombination; extreme values may be limits of the assay; sequences stand for … in AGTGCAGAGAAAATCGGCCAGTTTTCTCTGCCTGCAGTCCGCATGCCGTGGGACCCCTTGGGTTCTAACCTGTTGCCTAGATTTATGCAGCGGACTGCCTTTCTCCCAAAGTGATAAACCGG…AGGTTGGTTTCACT; site = the 11-nt donor. The procedure, abridged:
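Sequencing read counts were converted to CPM, averaged over two replicates and scaled by control-derived factors. Results are given as log10(CPM+1). The reads covered the donor–target junction of recombinant UMIs from a pooled Escherichia coli screen of donor and donor-binding-loop pairs for the IS621 bridge recombinase.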
In the case of “CCCTAGCCATGGACCGGTTTTCCCGGTAATCCGTATTTGTC (site CCCTAGCCTGG)”, the “recombinant UMI read abundance (log10)” value is 0.

Turning to “CCCTAGCCATGGACCGGTTTTCCCGGTAATCCGTATTTGTC (site CCCTAGCCTGT)”, the “recombinant UMI read abundance (log10)” value came to 0.

On to “CCCTATTCATGGACCGGTTTTCCCGGTAATCCGTATTTGGA (site CCCTATTCTTC)”, for which the “recombinant UMI read abundance (log10)” value was found to be 0.0708.

As for “CCCTTATCATGGACCGGTTTTCCCGGTAATCCGTATTTGCA (site CCCTTATCTTG)”, the “recombinant UMI read abundance (log10)” value was 2.15.

Regarding “CCCTTATCATGGACCGGTTTTCCCGGTAATCCGTATTTGTC (site CCCATATCTGA)”, the “recombinant UMI read abundance (log10)” value was 0.

Consider “CCCTTATCATGGACCGGTTTTCCCGGTAATCCGTATTTGTC (site CCCCTATCTGA)”, for which the “recombinant UMI read abundance (log10)” value was 0.

For the sequence “CCCTTATCATGGACCGGTTTTCCCGGTAATCCGTATTTGTC (site CCCGTATCTGA)”, the “recombinant UMI read abundance (log10)” value came out at 0.

Consider “CCCTTATCATGGACCGGTTTTCCCGGTAATCCGTATTTGTC (site CCCTTATCTGA)”, for which the “recombinant UMI read abundance (log10)” value came out at 0.909.

On to “CCCTTCTCATGGACCGGTTTTCCCGGTAATCCGTATTTGAG (site CCCTTCTCTCA)”, for which the “recombinant UMI read abundance (log10)” value is 0.00351.

Regarding “CCCTTCTCATGGACCGGTTTTCCCGGTAATCCGTATTTGAG (site CCCTTCTCTCC)”, the “recombinant UMI read abundance (log10)” value is 0.00506.

Take “CCCTTCTCATGGACCGGTTTTCCCGGTAATCCGTATTTGAG (site CCCTTCTCTCG)”: the “recombinant UMI read abundance (log10)” value came to 0.01.

“CCCTTCTCATGGACCGGTTTTCCCGGTAATCCGTATTTGAG (site CCCTTCTCTCT)”: the “recombinant UMI read abundance (log10)” value came out at 0.00554.

With “CCCTTCTCATGGACCGGTTTTCCCGGTAATCCGTATTTGCG (site CCCTTCTCTCA)”, the “recombinant UMI read abundance (log10)” value is 0.02.

Take “CCCTTCTCATGGACCGGTTTTCCCGGTAATCCGTATTTGCG (site CCCTTCTCTCC)”: the “recombinant UMI read abundance (log10)” value was 0.195.

For the sequence “CCCTTCTCATGGACCGGTTTTCCCGGTAATCCGTATTTGCG (site CCCTTCTCTCG)”, the “recombinant UMI read abundance (log10)” value is 1.08.

Regarding “CCCTTCTCATGGACCGGTTTTCCCGGTAATCCGTATTTGCG (site CCCTTCTCTCT)”, the “recombinant UMI read abundance (log10)” value came to 0.061.

Take “CCCTTCTCATGGACCGGTTTTCCCGGTAATCCGTATTTGGA (site CCCTTCTCTAC)”: the “recombinant UMI read abundance (log10)” value worked out at 0.

For the sequence “CCCTTCTCATGGACCGGTTTTCCCGGTAATCCGTATTTGGA (site CCCTTCTCTCC)”, the “recombinant UMI read abundance (log10)” value worked out at 0.0081.

With “CCCTTCTCATGGACCGGTTTTCCCGGTAATCCGTATTTGGA (site CCCTTCTCTGC)”, the “recombinant UMI read abundance (log10)” value amounted to 0.

For “CCCTTCTCATGGACCGGTTTTCCCGGTAATCCGTATTTGGA (site CCCTTCTCTTC)”, the “recombinant UMI read abundance (log10)” value was 0.21.

“CCCTTGCCATGGACCGGTTTTCCCGGTAATCCGTATTTGCC (site CCCTAGCCTGG)”: the “recombinant UMI read abundance (log10)” value amounted to 0.

For “CCCTTGCCATGGACCGGTTTTCCCGGTAATCCGTATTTGCC (site CCCTCGCCTGG)”, the “recombinant UMI read abundance (log10)” value was determined as 0.

Consider “CCCTTGCCATGGACCGGTTTTCCCGGTAATCCGTATTTGCC (site CCCTGGCCTGG)”, for which the “recombinant UMI read abundance (log10)” value came out at 0.

Turning to “CCCTTGCCATGGACCGGTTTTCCCGGTAATCCGTATTTGCC (site CCCTTGCCTGG)”, the “recombinant UMI read abundance (log10)” value is 0.

As for “CCCTTGTCATGGACCGGTTTTCCCGGTAATCCGTATTTGGG (site CCCTTATCTCC)”, the “recombinant UMI read abundance (log10)” value is 0.393.

In the case of “CCCTTGTCATGGACCGGTTTTCCCGGTAATCCGTATTTGGG (site CCCTTCTCTCC)”, the “recombinant UMI read abundance (log10)” value came to 0.00922.

On to “CCCTTGTCATGGACCGGTTTTCCCGGTAATCCGTATTTGGG (site CCCTTGTCTCC)”, for which the “recombinant UMI read abundance (log10)” value was 0.297.

For the sequence “CCCTTGTCATGGACCGGTTTTCCCGGTAATCCGTATTTGGG (site CCCTTTTCTCC)”, the “recombinant UMI read abundance (log10)” value is 0.0116.

In the case of “CCCTTTACATGGACCGGTTTTCCCGGTAATCCGTATTTGCT (site CCATTTACTAG)”, the “recombinant UMI read abundance (log10)” value is 0.

For the sequence “CCCTTTACATGGACCGGTTTTCCCGGTAATCCGTATTTGCT (site CCCTTTACTAG)”, the “recombinant UMI read abundance (log10)” value turned out to be 1.76.

Take “CCCTTTACATGGACCGGTTTTCCCGGTAATCCGTATTTGCT (site CCGTTTACTAG)”: the “recombinant UMI read abundance (log10)” value worked out at 0.

Take “CCCTTTACATGGACCGGTTTTCCCGGTAATCCGTATTTGCT (site CCTTTTACTAG)”: the “recombinant UMI read abundance (log10)” value stood at 0.

For the sequence “CCGAAACCATGGACCGGTTTTCCCGGTAATCCGTATTTGTT (site CCGAAACCTAA)”, the “recombinant UMI read abundance (log10)” value came to 0.

On to “CCGAAACCATGGACCGGTTTTCCCGGTAATCCGTATTTGTT (site CGGAATCCTAA)”, for which the “recombinant UMI read abundance (log10)” value was found to be 0.00312.

Regarding “CCGAAGGCATGGACCGGTTTTCCCGGTAATCCGTATTTGTG (site CCGAAGGCTCA)”, the “recombinant UMI read abundance (log10)” value came to 0.495.

As to “CCGAATACATGGACCGGTTTTCCCGGTAATCCGTATTTGGC (site CCAAATACTGC)”, the “recombinant UMI read abundance (log10)” value is 0.

With “CCGAATACATGGACCGGTTTTCCCGGTAATCCGTATTTGGC (site CCCAATACTGC)”, the “recombinant UMI read abundance (log10)” value is 0.

Turning to “CCGAATACATGGACCGGTTTTCCCGGTAATCCGTATTTGGC (site CCGAATACTGC)”, the “recombinant UMI read abundance (log10)” value was determined as 0.

Regarding “CCGAATACATGGACCGGTTTTCCCGGTAATCCGTATTTGGC (site CCTAATACTGC)”, the “recombinant UMI read abundance (log10)” value worked out at 0.

For “CCGACATCATGGACCGGTTTTCCCGGTAATCCGTATTTGCT (site CAGACATCTAG)”, the “recombinant UMI read abundance (log10)” value turned out to be 0.

Turning to “CCGACATCATGGACCGGTTTTCCCGGTAATCCGTATTTGCT (site CCGACATCTAG)”, the “recombinant UMI read abundance (log10)” value was found to be 0.421.

Take “CCGACATCATGGACCGGTTTTCCCGGTAATCCGTATTTGCT (site CGGACATCTAG)”: the “recombinant UMI read abundance (log10)” value amounted to 0.

Turning to “CCGACATCATGGACCGGTTTTCCCGGTAATCCGTATTTGCT (site CTGACATCTAG)”, the “recombinant UMI read abundance (log10)” value is 0.

Take “CCGACCTCATGGACCGGTTTTCCCGGTAATCCGTATTTGGT (site CCGACCTCTAC)”: the “recombinant UMI read abundance (log10)” value stood at 0.121.

On to “CCGATATCATGGACCGGTTTTCCCGGTAATCCGTATTTGTC (site CCAATATCTGA)”, for which the “recombinant UMI read abundance (log10)” value came out at 0.

As to “CCGATATCATGGACCGGTTTTCCCGGTAATCCGTATTTGTC (site CCCATATCTGA)”, the “recombinant UMI read abundance (log10)” value stood at 0.

Take “CCGATATCATGGACCGGTTTTCCCGGTAATCCGTATTTGTC (site CCGATATCTGA)”: the “recombinant UMI read abundance (log10)” value came to 1.21.

With “CCGATATCATGGACCGGTTTTCCCGGTAATCCGTATTTGTC (site CCTATATCTGA)”, the “recombinant UMI read abundance (log10)” value was 0.

Turning to “CCGATGCCATGGACCGGTTTTCCCGGTAATCCGTATTTGGA (site CCGATGCCTTC)”, the “recombinant UMI read abundance (log10)” value amounted to 0.0103.

For the sequence “CCGATTCCATGGACCGGTTTTCCCGGTAATCCGTATTTGTT (site CCGATTCCTAA)”, the “recombinant UMI read abundance (log10)” value was determined as 0.

With “CCGATTCCATGGACCGGTTTTCCCGGTAATCCGTATTTGTT (site CGGAATCCTAA)”, the “recombinant UMI read abundance (log10)” value came to 0.00507.

Consider “CCGCAGTCATGGACCGGTTTTCCCGGTAATCCGTATTTGGC (site CCGCAGTCTGC)”, for which the “recombinant UMI read abundance (log10)” value worked out at 0.

For “CCGCATACATGGACCGGTTTTCCCGGTAATCCGTATTTGTT (site CCGCATACTAA)”, the “recombinant UMI read abundance (log10)” value came to 0.39.

On to “CCGGAAGCATGGACCGGTTTTCCCGGTAATCCGTATTTGAC (site CCGGAAGCTGT)”, for which the “recombinant UMI read abundance (log10)” value stood at 0.161.

For the sequence “CCGGTAGCATGGACCGGTTTTCCCGGTAATCCGTATTTGAC (site CCGGTAGCTGT)”, the “recombinant UMI read abundance (log10)” value stood at 2.38.

Consider “CCGGTATCATGGACCGGTTTTCCCGGTAATCCGTATTTGAC (site CCGGTATCTGT)”, for which the “recombinant UMI read abundance (log10)” value worked out at 1.45.

In the case of “CCGGTATCATGGACCGGTTTTCCCGGTAATCCGTATTTGAC (site CTAGTATCTGT)”, the “recombinant UMI read abundance (log10)” value stood at 0.

Turning to “CCGGTGGCATGGACCGGTTTTCCCGGTAATCCGTATTTGAC (site CCGGTGGCTGT)”, the “recombinant UMI read abundance (log10)” value is 1.58.

Regarding “CCGTCAGCATGGACCGGTTTTCCCGGTAATCCGTATTTGTG (site CCGTAAGCTCA)”, the “recombinant UMI read abundance (log10)” value amounted to 0.

In the case of “CCGTCAGCATGGACCGGTTTTCCCGGTAATCCGTATTTGTG (site CCGTCAGCTCA)”, the “recombinant UMI read abundance (log10)” value turned out to be 0.00531.

Regarding “CCGTCAGCATGGACCGGTTTTCCCGGTAATCCGTATTTGTG (site CCGTGAGCTCA)”, the “recombinant UMI read abundance (log10)” value was found to be 0.00599.

For “CCGTCAGCATGGACCGGTTTTCCCGGTAATCCGTATTTGTG (site CCGTTAGCTCA)”, the “recombinant UMI read abundance (log10)” value is 0.00541.

In the case of “CCGTCATCATGGACCGGTTTTCCCGGTAATCCGTATTTGCT (site CCGTCATCTAG)”, the “recombinant UMI read abundance (log10)” value was 0.

For “CCGTCATCATGGACCGGTTTTCCCGGTAATCCGTATTTGCT (site CGATCATCTAG)”, the “recombinant UMI read abundance (log10)” value was 0.00968.

As to “CCGTCGCCATGGACCGGTTTTCCCGGTAATCCGTATTTGAT (site CCGTCGCCTAT)”, the “recombinant UMI read abundance (log10)” value was determined as 0.00407.

For the sequence “CCGTCGGCATGGACCGGTTTTCCCGGTAATCCGTATTTGTG (site CCGTCGGCTCA)”, the “recombinant UMI read abundance (log10)” value is 0.0197.

Turning to “CCGTGAGCATGGACCGGTTTTCCCGGTAATCCGTATTTGTG (site CCGTAAGCTCA)”, the “recombinant UMI read abundance (log10)” value was 0.0763.

Consider “CCGTGAGCATGGACCGGTTTTCCCGGTAATCCGTATTTGTG (site CCGTCAGCTCA)”, for which the “recombinant UMI read abundance (log10)” value was 0.

(Values after the supplement of paper PMC11208160.)
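Note: IS621 bridge recombinase in Escherichia coli cells against a fixed T5 target plasmid.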
